Data reported in PMC8609999, “A Phase I trial of talazoparib in patients with advanced hematologic malignancies” (International Journal of Hematologic Oncology, 2021).
Values joined by “and” are separate entries in the source; they are usually repeats but may differ in a detail not shown here. Equal values may be shown once. Read-outs that look alike come from different tables or passages of the source. Marks after values point to notes of the source that are not given here.

Legend:
[1] = system: patients with advanced hematologic malignancies (cohort 1: AML/MDS; cohort 2: CLL/MCL); experiment: Dose-limiting toxicity / MTD, Phase I 3 + 3 dose-escalation of once-daily oral talazoparib (NCT01399840); type: in vivo; conditions: for Maximum tolerated dose (MTD): oral once daily, 21-day cycles
Procedure: This study was an open-label, two-cohort, Phase I, dose-escalation study of once-daily talazoparib monotherapy in patients with advanced hematologic malignancies (ClinicalTrials.gov Identifier: NCT01399840) conducted at seven sites in the US and the UK between July 2011 and November 2013. Enrollment and dose escalation were conducted independently in each cohort of the study. Talazoparib was administered orally, once a day for repeated 21-day cycles under fasting conditions. Each cohort consisted of two stages: dose escalation (stage 1) and dose expansion (stage 2). Dose escalation followed a standard 3 + 3 dose-escalation design, where the first patient in each group was observed from cycle 1 day 1 through cycle 1 day 8 before two to five additional patients were treated in that dose level. […] Planned talazoparib dose levels included 0.1, 0.2, 0.3, 0.45, 0.9, 1.35, and 2.0 mg/day.
The primary objective of the study was to establish the MTD of daily oral talazoparib in molecularly unselected patients with AML or MDS (cohort 1) and in patients with CLL or MCL (cohort 2). The MTD was defined as the highest dose level at which no more than one of six patients experienced a DLT. A DLT was defined as any of the following treatment-related toxicities occurring during cycle 1: in cohort 1, hematologic adverse events (AEs) included bone marrow hypoplasia (≤10% cellularity) lasting ≥28 days. Non-hematologic toxicities included any Grade ≥3 AE except for the following: (1) a non-hematologic Grade 3 laboratory AE that is asymptomatic and rapidly reversible (returned to baseline or to Grade ≤1 within 3 days) unless identified as clinically relevant by the investigator; (2) Grade 3 nausea, vomiting, and/or diarrhea responsive to medications within 24 h; (3) Grade 3 tumor lysis syndrome; (4) Grade 3 stomatitis that resolves within 7 days; or (5) Grade 3 fatigue unless ≥2 grade increase from baseline lasting >3 days. Missing ≥4 doses of talazoparib during cycle 1 for treatment-related non-hematologic toxicity was also defined as a DLT. In cohort 2, hematologic AEs included Grade 4 thrombocytopenia persisting for >7 days and/or resulting in Grade ≥2 hemorrhage, or Grade 4 neutropenia lasting >7 days and/or associated with fever (hematologic AEs for patients with bone marrow effacement [i.e., platelet count ≤50 × 10^9/L and neutrophil count <1 × 10^9/L] included >50% decrease in platelet count persisting for >7 days or resulting in Grade ≥2 hemorrhage, or >50% decrease in neutrophil count and/or associated with fever or systemic infection). For non-hematologic AEs, the same criteria used for cohort 1 were used to define DLT.
Patients experiencing a DLT during cycle 1 could resume talazoparib treatment at the same or reduced dose after recovery to baseline or Grade ≤1 within 21 days of treatment interruption. Patients not experiencing a DLT during cycle 1 could receive additional treatment until disease progression, treatment failure, or relapse. Patients with persisting non-hematologic Grade 1/2 toxicity were dose reduced ∼25%. Dosing was stopped for patients with a Grade 3/4 non-hematologic toxicity and resumed with a 25%–50% dose reduction if toxicity resolved to Grade 0/1 after >7 days, or returned to baseline. Patients with non-hematologic Grade 3 toxicity that resolved to Grade 0/1 in <7 days could resume with ∼25% reduction.
For determination of the MTD, only the treated evaluable patients were included. No formal sample size calculations based on statistical power were performed. Descriptive statistics were used to characterize all outcomes.

[2] = system: PARP; parameters: method as in PMID 28302823, PMID 24356813, PMID 32241924; conditions: in vitro; cited from earlier work
[3] = system: patients with germline BRCA1/2 mutations and solid tumors; conditions: NCT01286987; cited from earlier work
[4] = system: advanced hematologic malignancies (AML, MDS, CLL, MCL); experiment: Anti-leukemic activity (best overall response); type: in vivo, human
Procedure: Objective response, duration of objective response, and time to progression or treatment failure were recorded. Response was measured by the following response criteria: the European leukemiaNet for subjects with AML [30], the International Working Group for Prognosis in MDS for subjects with MDS [31, 32], the International Workshop on Chronic Lymphocytic leukemia (iwCLL) for subjects with CLL, and the Revised Response Criteria for MCL [34].

[5] = system: patients with advanced hematologic malignancies (cohort 1: AML/MDS; cohort 2: CLL/MCL); type: in vivo, human
Excerpt: AEs were coded in accordance with The Medical Dictionary for Regulatory Activities, version 16.1. Treatment-emergent AEs (TEAEs) were defined as AEs that were new, increased in frequency, or worsened in severity, after the first talazoparib dose. AEs counted as drug-related had been classified by investigators as possibly or probably related to talazoparib.
All analyses in this open-label, dose-finding study were descriptive in nature. Descriptive summaries of continuous variables, including the mean, standard deviation (SD), median, range, and, where appropriate, 95% CI and/or interquartile range, were determined using the Statistical Analysis Software (SAS), version 9.2. Descriptive summaries of categorical variables included the number of patients and percentages. Data were summarized with respect to the dose level at which the patients started treatment. Cohorts were defined as all patients who began treatment at a given dose level.

For `Cn1ncnc1[C@H]1c2n[nH]c(=O)c3cc(F)cc(c23)N[C@@H]1c1ccc(F)cc1` [talazoparib], the “Maximum tolerated dose (MTD)” value ([1]; Cohort 1 (AML/MDS)) was < 2.0 mg/day and 1.35 mg/day, the “DLT AE: Neutropenic sepsis” value ([1]; Cohort 1, 0.10 mg/day (n = 3)) was 0 (0.0) n (%) and the “DLT AE: Neutropenic sepsis” value ([1]; Cohort 1, 0.20 mg/day (n = 3)) was 0 (0.0) n (%). For the same molecule, the “DLT AE: Neutropenic sepsis” value ([1]; Cohort 1, 0.30 mg/day (n = 5)) was 0 (0.0) n (%), the “DLT AE: Neutropenic sepsis” value ([1]; Cohort 1, 0.45 mg/day (n = 3)) was 0 (0.0) n (%) and the “DLT AE: Neutropenic sepsis” value ([1]; Cohort 1, 0.90 mg/day (n = 4)) was 0 (0.0) n (%). For the same molecule, the “DLT AE: Neutropenic sepsis” value ([1]; Cohort 1, 1.35 mg/day (n = 3)) was 0 (0.0) n (%), the “DLT AE: Neutropenic sepsis” value ([1]; Cohort 1, 2.00 mg/day (n = 4)) was 1 (25.0)^† n (%) and the “DLT AE: Neutropenic sepsis” value ([1]; Cohort 1, All (n = 25)) was 1 (4.0) n (%). For the same molecule, the “Maximum tolerated dose (MTD)” value ([1]; Cohort 2 (CLL/MCL)) was < 0.9 mg/day and ~0.9 mg/day, the “DLT AE: Neutropenic sepsis” value ([1]; Cohort 2, 0.10 mg/day (n = 3)) was 0 (0.0) n (%) and the “DLT AE: Neutropenic sepsis” value ([1]; Cohort 2, 0.90 mg/day (n = 5)) was 0 (0.0) n (%). For the same molecule, the “DLT AE: Neutropenic sepsis” value ([1]; Cohort 2, All (n = 8)) was 0 (0.0) n (%), the “MTD in patients with hematologic malignancies (approximate range)” value ([1]; monotherapy, once daily, both cohorts) was about 1 mg and the “PARP-trapping activity compared with other PARP inhibitors” value [2] was “higher PARP-trapping activity”. For the same molecule, the “Maximum tolerated dose (MTD)” value [3] was 1 mg once daily, the “Stable disease (best overall response)” value ([4]; Cohort 1, AML (n = 21)) was 9 (42.9) n (%) and the “Stable disease ≥16 weeks” value ([4]; Cohort 1, AML (n = 21)) was 2 (9.5)^‡ n (%). The “Stable disease (best overall response)” value ([4]; Cohort 1, All (n = 25)) was 13 (52.0) n (%), the “Stable disease ≥16 weeks” value ([4]; Cohort 1, All (n = 25)) was 5 (20.0) n (%) and the “Stable disease (best overall response)” value ([4]; Cohort 1, MDS (n = 4)) was 4 (100) n (%). The “Stable disease ≥16 weeks” value ([4]; Cohort 1, MDS (n = 4)) was 3 (75.0)^§ n (%), the “Stable disease (best overall response)” value ([4]; Cohort 2, All (n = 8)) was 5 (62.5) n (%) and the “Stable disease ≥16 weeks” value ([4]; Cohort 2, All (n = 8)) was 1 (12.5) n (%). The “Stable disease (best overall response)” value ([4]; Cohort 2, CLL (n = 4)) was 3 (75.0) n (%), the “Stable disease ≥16 weeks” value ([4]; Cohort 2, CLL (n = 4)) was 0 n (%) and the “Stable disease (best overall response)” value ([4]; Cohort 2, MCL (n = 4)) was 2 (50.0) n (%). For the same molecule, the “Stable disease ≥16 weeks” value ([4]; Cohort 2, MCL (n = 4)) was 1 (25.0) n (%), the “Patients with stable disease” value ([4]; both cohorts, N = 33) was 54.5% and the “Stable disease of at least 16 weeks' duration” value ([4]; both cohorts, N = 33) was “six”. The Transfusion independence ([4]; one with MDS and one with AML) was “two”, the “Any AEs of CTCAE Grade of 5 (death)” value ([5]; Cohort 1, 0.10 mg/day (n = 3)) was 0 (0.0) n (%) and the “Any study drug-related AEs of CTCAE Grade 5 (death)” value (“Any study drug-related AEs” below) ([5]; Cohort 1, 0.10 mg/day (n = 3)) was 0 (0.0) n (%). The “Any AEs of CTCAE Grade of 5 (death)” value ([5]; Cohort 1, 0.20 mg/day (n = 3)) was 2 (66.7) n (%), the “Any study drug-related AEs” value ([5]; Cohort 1, 0.20 mg/day (n = 3)) was 0 (0.0) n (%) and the “Any AEs of CTCAE Grade of 5 (death)” value ([5]; Cohort 1, 0.30 mg/day (n = 5)) was 1 (20.0) n (%). The “Any study drug-related AEs” value ([5]; Cohort 1, 0.30 mg/day (n = 5)) was 0 (0.0) n (%), the “Any AEs of CTCAE Grade of 5 (death)” value ([5]; Cohort 1, 0.45 mg/day (n = 3)) was 2 (66.7) n (%) and the “Any study drug-related AEs” value ([5]; Cohort 1, 0.45 mg/day (n = 3)) was 0 (0.0) n (%). For the same molecule, the “Any AEs of CTCAE Grade of 5 (death)” value ([5]; Cohort 1, 0.90 mg/day (n = 4)) was 3 (75.0) n (%), the “Any study drug-related AEs” value ([5]; Cohort 1, 0.90 mg/day (n = 4)) was 0 (0.0) n (%) and the “Any AEs” value ([5]; Cohort 1, 1.35 mg/day (n = 3)) was 3 (100) n (%).
